Results on seven compounds are retold here after ChEMBL document CHEMBL1147037 (J Biol Chem, 2007).

The target in test [1] is T1, Mu-type opioid receptor (Homo sapiens, UniProt P35372). The conditions noted are these: HEK293-A, at 100 µM.
For test [2], the target named is T1, Mu-type opioid receptor. In words: Activation of human mu opioid receptor expressed in HEK293a cells coexpressing YFP-labelled alphai1 and CFP-labelled beta-1-gamma-2 Gi subunits assessed as decrease in fluorescence resonance energy transfer signal at 10 uM relative to morphine. The note with it: HEK293-A. It is filed as cell-based.
Test [3] concerns the target T1, Mu-type opioid receptor. As to the kind of experiment: Activation of human mu opioid receptor expressed in HEK293a cells co-expressing YFP-labelled alphai1 and CFP-labelled beta1gamma2 Gi subunits assessed as Gi protein activation by fluorescence resonance energy transfer. The test is classed as cell-based, HEK293-A.
Test [4] deals with T1, Mu-type opioid receptor. As to the kind of experiment: Displacement of [3H]naloxone from human mu poioid receptor expressed in HEK293 cells. It is filed as cell-based. In general terms: Displacement assays read how much labelled ligand stays bound in the presence of the test substance.

T1 sequence (P35372 whole entry): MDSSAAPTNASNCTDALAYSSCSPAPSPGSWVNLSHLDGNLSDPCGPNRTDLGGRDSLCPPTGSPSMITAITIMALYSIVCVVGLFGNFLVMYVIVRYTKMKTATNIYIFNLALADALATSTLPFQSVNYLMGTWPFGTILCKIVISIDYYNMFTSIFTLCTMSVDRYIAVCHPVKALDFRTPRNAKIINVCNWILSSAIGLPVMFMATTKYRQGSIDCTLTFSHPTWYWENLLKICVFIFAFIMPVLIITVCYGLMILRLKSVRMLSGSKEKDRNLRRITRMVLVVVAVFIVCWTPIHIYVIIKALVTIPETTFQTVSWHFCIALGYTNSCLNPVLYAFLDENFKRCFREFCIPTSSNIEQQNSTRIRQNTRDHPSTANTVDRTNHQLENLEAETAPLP

By Emax is commonly meant the greatest response seen or fitted, relative to the assay's reference. At Mu-type opioid receptor [1], `COC1=C[C@]23CCN(C)[C@H](Cc4ccc(OC)c(O)c42)C3=C[C@@H]1O` came in with an Emax of 17.7%.
On the same count and under the same terms, then `COc1ccc(C[C@@H]2c3cc(O)c(OC)cc3CCN2C)cc1O`, with 15.9%.
What is called EC50 is the concentration giving half of the maximal effect. A word on the Ki: it is a measure of affinity in units of concentration, obtained from inhibition or displacement. `COc1ccc2c3c1O[C@H]1C(=O)C=C[C@H]4[C@@H](C2)N(C)CC[C@]314` [CODEINONE]: the Emax on Mu-type opioid receptor [2] was determined as 100%. Moreover, at Mu-type opioid receptor [3], the EC50 is 294 nM. At Mu-type opioid receptor [4], this compound yielded a Ki of 459 nM.
The matching figures for `CN1CC[C@]23c4c5ccc(O)c4O[C@H]2C(=O)C=C[C@H]3[C@H]1C5` [MORPHINONE]: 100%, 28 nM and 146 nM.
The matching figures for `COC1=CC=C2[C@H]3Cc4ccc(O)c5c4[C@@]2(CCN3C)[C@H]1O5` [ORIPAVINE]: 100%, 277 nM and 286 nM.
For the compound `COC1=C[C@]23CCN(C)[C@H](Cc4ccc(OC)c(O)c42)C3=CC1=O` [SALUTARIDINE], at Mu-type opioid receptor [3], the EC50 was found to be 32500 nM. This compound showed a Ki on Mu-type opioid receptor [4] of 34600 nM. The Emax on Mu-type opioid receptor [1] stood at 54.4%.
Take `COC1=CC=C2[C@H]3Cc4ccc(OC)c5c4[C@@]2(CCN3C)[C@H]1O5` [THEBAINE]: the EC50 at Mu-type opioid receptor [3] was 5600 nM. On Mu-type opioid receptor [4], this compound came in with a Ki of 7400 nM. The compound also showed an Emax on Mu-type opioid receptor [1] of 76.3%.
